The nature of the series: recombinant barcode read abundance after kanamycin selection (control-corrected) (log10(CPM+1)); higher = more efficient recombination; sequences stand for … in AGTGCAGAGAAAATCGGCCAGTTTTCTCTGCCTGCAGTCCGCATGCCGT…AGATTTATGCAGCGGACTGCCTTTCTCCCAAAGTGATAAACCGGACAGTATCATGGACCGGTTTTCCCGGTAATCCGTATTTGCAAGGTTGGTTTCACT; site = the 11-nt target. An outline of the steps: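 A vector carrying a T7-inducible recombinase and the last 73 bp of the bridge RNA received, by Gibson cloning, oligos encoding a promoter, target, barcode and the first 104 bridge RNA bases under J23119. The pooled constructs entered E. coli together with a donor plasmid by electroporation. Selection used chloramphenicol/ampicillin/kanamycin with 0.1 mM IPTG, with chloramphenicol/ampicillin LB agar as the control, each in two replicates. Recombination efficiency is the averaged, control-corrected counts-per-million of barcodes at recombinant junctions, reported as log10(CPM+1).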
Turning to “TCTATCCCTTGGGTTCTAACCTGTTGCCT (site TCAATCCCTAG)”, the “recombinant barcode read abundance (log10)” value was 0.113.

For “TCTATCCCTTGGGTTCTAACCTGTTGCCT (site TCCATCCCTAG)”, the “recombinant barcode read abundance (log10)” value came out at 0.105.

As for “TCTATCCCTTGGGTTCTAACCTGTTGCCT (site TCGATCCCTAG)”, the “recombinant barcode read abundance (log10)” value was 0.0408.

With “TCTATCCCTTGGGTTCTAACCTGTTGCCT (site TCTATCCCTAG)”, the “recombinant barcode read abundance (log10)” value was 0.203.

Turning to “TCTATGACTTGGGTTCTAACCTGTTGCCT (site TCTATGACTAG)”, the “recombinant barcode read abundance (log10)” value was found to be 0.0099.

In the case of “TCTATGACTTGGGTTCTAACCTGTTGCCT (site TCTATGTCTAG)”, the “recombinant barcode read abundance (log10)” value turned out to be 0.187.

With “TCTCAGCCTTGGGTTCTAACCTGTTGCCT (site TCTCAGCCTAG)”, the “recombinant barcode read abundance (log10)” value turned out to be 0.453.

On to “TCTCAGCCTTGGGTTCTAACCTGTTGCCT (site TCTCCGCCTAG)”, for which the “recombinant barcode read abundance (log10)” value came out at 0.0825.

Consider “TCTCAGCCTTGGGTTCTAACCTGTTGCCT (site TCTCGGCCTAG)”, for which the “recombinant barcode read abundance (log10)” value amounted to 0.291.

Turning to “TCTCAGCCTTGGGTTCTAACCTGTTGCCT (site TCTCTGCCTAG)”, the “recombinant barcode read abundance (log10)” value was found to be 0.0307.

As to “TCTGAAACTTGGGTTCTAACCTGTTGCCT (site TCCGAAACTAT)”, the “recombinant barcode read abundance (log10)” value was found to be 0.12.

For “TCTGAAACTTGGGTTCTAACCTGTTGCCT (site TCTGAAACTAG)”, the “recombinant barcode read abundance (log10)” value was 0.413.

As for “TCTGGGCCTTGGGTTCTAACCTGTTGCTT (site TCTGGGCCTAA)”, the “recombinant barcode read abundance (log10)” value amounted to 0.0924.

Turning to “TCTGGGCCTTGGGTTCTAACCTGTTGCTT (site TCTGGGCCTTA)”, the “recombinant barcode read abundance (log10)” value worked out at 0.525.

For the sequence “TCTGGGGCTTGGGTTCTAACCTGTTGCAG (site TCTGGGGCTCA)”, the “recombinant barcode read abundance (log10)” value was 0.686.

“TCTGGGGCTTGGGTTCTAACCTGTTGCAG (site TCTGGGGCTCC)”: the “recombinant barcode read abundance (log10)” value is 0.189.

On to “TCTGGGGCTTGGGTTCTAACCTGTTGCAG (site TCTGGGGCTCG)”, for which the “recombinant barcode read abundance (log10)” value worked out at 0.159.

Regarding “TCTGGGGCTTGGGTTCTAACCTGTTGCAG (site TCTGGGGCTCT)”, the “recombinant barcode read abundance (log10)” value was determined as 2.15.

In the case of “TCTGTCTCTTGGGTTCTAACCTGTTGCCT (site TCTGTCTCTAG)”, the “recombinant barcode read abundance (log10)” value came out at 2.03.

With “TCTGTCTCTTGGGTTCTAACCTGTTGCCT (site TGTGTCTCTAC)”, the “recombinant barcode read abundance (log10)” value was 0.0569.

As to “TCTTGGACTTGGGTTCTAACCTGTTGCTA (site TCTTGGACTAA)”, the “recombinant barcode read abundance (log10)” value is 0.214.

Consider “TCTTGGACTTGGGTTCTAACCTGTTGCTA (site TCTTGGACTCA)”, for which the “recombinant barcode read abundance (log10)” value came to 0.0354.

“TCTTGGACTTGGGTTCTAACCTGTTGCTA (site TCTTGGACTGA)”: the “recombinant barcode read abundance (log10)” value turned out to be 0.0809.

Consider “TCTTGGACTTGGGTTCTAACCTGTTGCTA (site TCTTGGACTTA)”, for which the “recombinant barcode read abundance (log10)” value amounted to 0.0613.

For “TGAAAGTCTTGGGTTCTAACCTGTTGCCT (site TGAAAGTCTAG)”, the “recombinant barcode read abundance (log10)” value stood at 0.727.

For “TGAAAGTCTTGGGTTCTAACCTGTTGCCT (site TGAACGTCTAG)”, the “recombinant barcode read abundance (log10)” value is 0.0267.

Regarding “TGAAAGTCTTGGGTTCTAACCTGTTGCCT (site TGAAGGTCTAG)”, the “recombinant barcode read abundance (log10)” value was 0.15.

For the sequence “TGAAAGTCTTGGGTTCTAACCTGTTGCCT (site TGAATGTCTAG)”, the “recombinant barcode read abundance (log10)” value was 0.0411.

Turning to “TGAACTCCTTGGGTTCTAACCTGTTGCCT (site GTAACTCCTAG)”, the “recombinant barcode read abundance (log10)” value turned out to be 0.118.

With “TGAACTCCTTGGGTTCTAACCTGTTGCCT (site TGAACTCCTAG)”, the “recombinant barcode read abundance (log10)” value was 0.122.

Consider “TGACATTCTTGGGTTCTAACCTGTTGCTT (site GGACATTCTAA)”, for which the “recombinant barcode read abundance (log10)” value came to 0.139.

In the case of “TGACATTCTTGGGTTCTAACCTGTTGCTT (site TGACATTCTAA)”, the “recombinant barcode read abundance (log10)” value worked out at 0.13.

“TGAGACACTTGGGTTCTAACCTGTTGCTG (site TGACACACTCA)”: the “recombinant barcode read abundance (log10)” value was 0.0729.

On to “TGAGACACTTGGGTTCTAACCTGTTGCTG (site TGAGACACTCA)”, for which the “recombinant barcode read abundance (log10)” value turned out to be 2.68.

With “TGAGACTCTTGGGTTCTAACCTGTTGCCT (site TGAGACTCTAG)”, the “recombinant barcode read abundance (log10)” value turned out to be 2.2.

In the case of “TGAGACTCTTGGGTTCTAACCTGTTGCCT (site TGCGACTCTAG)”, the “recombinant barcode read abundance (log10)” value was 0.0734.

For “TGAGACTCTTGGGTTCTAACCTGTTGCCT (site TGGGACTCTAG)”, the “recombinant barcode read abundance (log10)” value amounted to 0.198.

With “TGAGACTCTTGGGTTCTAACCTGTTGCCT (site TGTGACTCTAG)”, the “recombinant barcode read abundance (log10)” value came to 0.463.

As for “TGAGCTACTTGGGTTCTAACCTGTTGCAC (site TGAGCTACTGT)”, the “recombinant barcode read abundance (log10)” value was 1.16.

With “TGAGCTACTTGGGTTCTAACCTGTTGCAC (site TGTGCGACTGT)”, the “recombinant barcode read abundance (log10)” value amounted to 0.0102.

Turning to “TGAGGATCTTGGGTTCTAACCTGTTGCCT (site TGAGGATCTAG)”, the “recombinant barcode read abundance (log10)” value turned out to be 0.99.

With “TGAGGATCTTGGGTTCTAACCTGTTGCCT (site TGAGGCACTAG)”, the “recombinant barcode read abundance (log10)” value came to 0.503.

As to “TGAGGGACTTGGGTTCTAACCTGTTGCCT (site CTCATAGCTTC)”, the “recombinant barcode read abundance (log10)” value turned out to be 0.0546.

As for “TGAGGGACTTGGGTTCTAACCTGTTGCCT (site TGAGGGACTAG)”, the “recombinant barcode read abundance (log10)” value stood at 1.9.

Turning to “TGAGTCCCTTGGGTTCTAACCTGTTGCTT (site TGAGTACCTAA)”, the “recombinant barcode read abundance (log10)” value was 0.0411.

On to “TGAGTCCCTTGGGTTCTAACCTGTTGCTT (site TGAGTCCCTAA)”, for which the “recombinant barcode read abundance (log10)” value is 1.67.

For “TGAGTCCCTTGGGTTCTAACCTGTTGCTT (site TGAGTGCCTAA)”, the “recombinant barcode read abundance (log10)” value stood at 0.0566.

Regarding “TGAGTCCCTTGGGTTCTAACCTGTTGCTT (site TGAGTTCCTAA)”, the “recombinant barcode read abundance (log10)” value stood at 0.125.

As to “TGAGTGCCTTGGGTTCTAACCTGTTGCTT (site TGAGTACCTAA)”, the “recombinant barcode read abundance (log10)” value was found to be 0.682.

On to “TGAGTGCCTTGGGTTCTAACCTGTTGCTT (site TGAGTCCCTAA)”, for which the “recombinant barcode read abundance (log10)” value amounted to 0.116.

“TGAGTGCCTTGGGTTCTAACCTGTTGCTT (site TGAGTGCCTAA)”: the “recombinant barcode read abundance (log10)” value amounted to 1.1.

For the sequence “TGAGTGCCTTGGGTTCTAACCTGTTGCTT (site TGAGTTCCTAA)”, the “recombinant barcode read abundance (log10)” value was determined as 0.0622.

For the sequence “TGATCCTCTTGGGTTCTAACCTGTTGCTA (site AGGTCCTCTTA)”, the “recombinant barcode read abundance (log10)” value was 0.0555.

As for “TGATCCTCTTGGGTTCTAACCTGTTGCTA (site TGATCCTCTTA)”, the “recombinant barcode read abundance (log10)” value was found to be 0.513.

For the sequence “TGCACTCCTTGGGTTCTAACCTGTTGCCT (site TACAGTCCTAG)”, the “recombinant barcode read abundance (log10)” value was determined as 0.0234.

For the sequence “TGCACTCCTTGGGTTCTAACCTGTTGCCT (site TGCACTCCTAG)”, the “recombinant barcode read abundance (log10)” value worked out at 0.0424.

On to “TGCATAGCTTGGGTTCTAACCTGTTGCAG (site CTGCAGTCTTG)”, for which the “recombinant barcode read abundance (log10)” value stood at 0.00928.

Turning to “TGCATAGCTTGGGTTCTAACCTGTTGCAG (site TGCATAGCTCT)”, the “recombinant barcode read abundance (log10)” value is 1.49.

As for “TGCCAGACTTGGGTTCTAACCTGTTGCGT (site AGCCACACTAC)”, the “recombinant barcode read abundance (log10)” value worked out at 0.0104.

For the sequence “TGCCAGACTTGGGTTCTAACCTGTTGCGT (site TGCCAGACTAC)”, the “recombinant barcode read abundance (log10)” value worked out at 1.74.

“TGCCCCTCTTGGGTTCTAACCTGTTGCCG (site ACAAGGCCTAT)”: the “recombinant barcode read abundance (log10)” value came out at 0.0768.

As to “TGCCCCTCTTGGGTTCTAACCTGTTGCCG (site TGCCCCTCTCG)”, the “recombinant barcode read abundance (log10)” value was determined as 1.46.

Take “TGCCCTCCTTGGGTTCTAACCTGTTGCTT (site TCCTCTCCTAA)”: the “recombinant barcode read abundance (log10)” value was 0.0862.

Regarding “TGCCCTCCTTGGGTTCTAACCTGTTGCTT (site TGCCCTCCTAA)”, the “recombinant barcode read abundance (log10)” value is 0.0976.

“TGCCTCTCTTGGGTTCTAACCTGTTGCTA (site GTTAGACCTAG)”: the “recombinant barcode read abundance (log10)” value was found to be 0.0422.

“TGCCTCTCTTGGGTTCTAACCTGTTGCTA (site TGCCTCTCTTA)”: the “recombinant barcode read abundance (log10)” value came out at 0.279.

In the case of “TGCGATACTTGGGTTCTAACCTGTTGCTT (site ACACGAGCTCT)”, the “recombinant barcode read abundance (log10)” value was 0.0799.

Regarding “TGCGATACTTGGGTTCTAACCTGTTGCTT (site TGCGATACTAA)”, the “recombinant barcode read abundance (log10)” value worked out at 0.223.

For the sequence “TGCGGGTCTTGGGTTCTAACCTGTTGCCT (site GAGCTTGCTTC)”, the “recombinant barcode read abundance (log10)” value was 0.273.

Take “TGCGGGTCTTGGGTTCTAACCTGTTGCCT (site TGCGGGTCTAG)”: the “recombinant barcode read abundance (log10)” value was found to be 0.702.

For the sequence “TGCGTTCCTTGGGTTCTAACCTGTTGCGT (site TGCGTCACTAC)”, the “recombinant barcode read abundance (log10)” value turned out to be 0.0759.

Consider “TGCGTTCCTTGGGTTCTAACCTGTTGCGT (site TGCGTTCCTAC)”, for which the “recombinant barcode read abundance (log10)” value was found to be 0.88.

With “TGCTAGGCTTGGGTTCTAACCTGTTGCCT (site TGCTAGGCTAG)”, the “recombinant barcode read abundance (log10)” value came out at 0.0609.

Take “TGCTAGGCTTGGGTTCTAACCTGTTGCCT (site TGTCAGGCTAG)”: the “recombinant barcode read abundance (log10)” value was determined as 0.0576.

For the sequence “TGCTCGGCTTGGGTTCTAACCTGTTGCCT (site AGCTCCGCTAG)”, the “recombinant barcode read abundance (log10)” value was 0.

In the case of “TGCTCGGCTTGGGTTCTAACCTGTTGCCT (site TGCTCGGCTAG)”, the “recombinant barcode read abundance (log10)” value is 0.0603.

“TGCTCTACTTGGGTTCTAACCTGTTGCTT (site TGATCTACTAA)”: the “recombinant barcode read abundance (log10)” value was found to be 0.122.

The record behind these values is the supplement of paper PMC11208160.
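Further: IS621 recombinase and bridge RNA in Escherichia coli cells.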
